Measured values from PMC3282081, “A Modular Strategy to Prepare Multivalent Inhibitors of Prostate-Specific Membrane Antigen (PSMA)” (Oncotarget, 2011).
pKi: −log10 of the molar value. “And” between values parts separate entries of the source, which are not always exact repeats. Identical values can stand only once. Like-named read-outs stand apart in the source and are kept apart here.

Key:
[1] = biological target: T1, PSMA (Homo sapiens, UniProt Q04609); assay: fluorescence-based PSMA inhibition assay (NAAG hydrolysis, Amplex Red); assay type: biochemical; conditions: for pKi: LNCaP cell lysates, 4 μM NAAG, Cheng-Prusoff conversion; for increase in binding affinity (Ki) compared to monovalent 1: relative to compound 1
T1 construct: endogenous in cells; host or cells: LNCaP cell lysate
Method: PSMA inhibition constant (Ki) values for 1 - 3 were determined using a fluorescence-based PSMA inhibition assay. […] Compound 6 was radiolabeled with ^99mTc and its biological properties were tested in vivo [34].
The PSMA inhibitory activities of 1 - 3 and [^113/115In]3 were determined using a fluorescence-based assay according to a previously reported procedure. Briefly, lysates of LNCaP cell extracts (25 μL) were incubated with the inhibitor (12.5 μL) in the presence of 4 μM NAAG (12.5 μL) for 120 min. The amount of glutamate released upon hydrolysis of NAAG was measured by incubating with a working solution (50 μL) of the Amplex Red Glutamic Acid Kit (Life Technologies, Grand Island, NY) for 60 min. Fluorescence was measured with a VICTOR3V multilabel plate reader (Perkin Elmer Inc., Waltham, MA) with excitation at 530 nm and emission at 560 nm. […] Assays were performed in triplicate. Enzyme inhibitory constants (Ki values) were generated using the Cheng-Prusoff conversion. Data analysis was performed using GraphPad Prism version 4.00 for Windows (GraphPad Software, San Diego, CA).

[2] = biological target: T1, PSMA; set-up: method as in earlier work; conditions: separate previous experiment; cited from earlier work

T1 sequence (Q04609 whole entry): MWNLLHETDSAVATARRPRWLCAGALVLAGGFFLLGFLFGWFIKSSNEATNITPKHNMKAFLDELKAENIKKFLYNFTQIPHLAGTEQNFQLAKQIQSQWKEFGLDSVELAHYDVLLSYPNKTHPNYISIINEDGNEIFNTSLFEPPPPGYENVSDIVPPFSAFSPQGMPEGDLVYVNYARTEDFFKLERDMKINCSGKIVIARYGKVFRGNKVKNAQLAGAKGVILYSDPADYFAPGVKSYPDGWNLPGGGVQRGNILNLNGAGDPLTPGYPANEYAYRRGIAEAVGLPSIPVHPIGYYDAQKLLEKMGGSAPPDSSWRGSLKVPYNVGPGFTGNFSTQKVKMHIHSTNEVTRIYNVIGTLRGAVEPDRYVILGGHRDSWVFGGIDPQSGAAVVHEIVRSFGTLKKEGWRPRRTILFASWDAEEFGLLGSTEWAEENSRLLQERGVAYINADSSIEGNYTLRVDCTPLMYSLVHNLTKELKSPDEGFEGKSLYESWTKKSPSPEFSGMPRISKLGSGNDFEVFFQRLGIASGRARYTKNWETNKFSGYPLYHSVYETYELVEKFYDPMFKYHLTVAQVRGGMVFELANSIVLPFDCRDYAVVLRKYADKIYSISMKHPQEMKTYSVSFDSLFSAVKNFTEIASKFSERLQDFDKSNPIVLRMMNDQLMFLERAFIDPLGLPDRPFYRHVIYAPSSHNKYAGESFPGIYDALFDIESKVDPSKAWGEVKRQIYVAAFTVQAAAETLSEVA

[N-]=[N+]=NCCCCC(NC(=O)CCCCCCC(=O)NCCCC[C@H](NC(=O)N[C@@H](CCC(=O)O)C(=O)O)C(=O)O)C(=O)O (stereo partly drawn) [Compound 1, (3S,7S)-26-Azido-5,13,20-trioxo-4,6,12,21-tetraazahexacosane-1,3,7,22-tetracarboxylic acid]
pKi [1]: 9.05 and 9.04

NCCCCC(NC(=O)C(CCCCNC(=O)c1cn(CCCCC(NC(=O)CCCCCCC(=O)NCCCC[C@H](NC(=O)N[C@@H](CCC(=O)O)C(=O)O)C(=O)O)C(=O)O)nn1)NC(=O)c1cn(CCCCC(NC(=O)CCCCCCC(=O)NCCCC[C@H](NC(=O)N[C@@H](CCC(=O)O)C(=O)O)C(=O)O)C(=O)O)nn1)C(=O)O (stereo partly drawn) [Compound 2]
pKi [1]: 10.00
increase in binding affinity (Ki) compared to monovalent 1 [1]: 5 fold and ~ 5 fold

O=C(O)CC[C@H](NC(=O)N[C@@H](CCCCNC(=O)CCCCCCC(=O)NC(CCCCn1cc(C(=O)NCCCCC(NC(=O)c2cn(CCCCC(NC(=O)CCCCCCC(=O)NCCCC[C@H](NC(=O)N[C@@H](CCC(=O)O)C(=O)O)C(=O)O)C(=O)O)nn2)C(=O)NC(CCCCNC(=O)CN2CCN(CC(=O)O)CCN(CC(=O)O)CCN(CC(=O)O)CC2)C(=O)O)nn1)C(=O)O)C(=O)O)C(=O)O (stereo partly drawn) [Compound 3]
pKi [1]: 10.10
increase in binding affinity (Ki) compared to monovalent 1 [1]: 11 fold and ~ 11 fold

NC(Cc1cn(CCCCC(NC(=O)CCCCCCC(=O)NCCCC[C@H](NC(=O)N[C@@H](CCC(=O)O)C(=O)O)C(=O)O)C(=O)O)nn1)C(=O)O (stereo partly drawn) [Compound 6]
pKi [2]: 9.04
